The values that follow come from patent US20010051191A1, “Composition and method for treating non-bacterial cystitis” (priority 2000, published 2001).

Data set [1] has as its system patients without positive bacterial cultures localized to the prostatic fluid. The data set is described as follows: Example II: double blind placebo-controlled study using 30 patients. The data set is classed as in vivo. As to the method:
A double blind study using 30 patients without positive bacterial cultures localized to the prostatic fluid are enrolled in a double blind study. Seventeen of the patients receive a composition comprised of quercetin in amount of 500 milligrams, bromelin in an amount of 10 milligrams, and papain in an amount of 10 milligrams as the active ingredients thereof. After a randomized study is completed, an additional fifteen patients are treated in an open label study with only the […]. […] The mean symptom score improves from 21.0 to 13.1 in the group receiving quercetin, but from 20.2 to 18.8 in the placebo group. This represents an improvement of 35%. In those patients which receive only the quercetin, without the papain and bromelin, with obtainable secretions, the white blood cell count in the decreases from 16.8 to 5.3, versus a decrease from 13.1 to 8.3 in the placebo patients.

The nature of data set [2]: Tests of bioavailability of quercetin alone. In kind it is in vivo. To be noted: transmural intestinal absorption relatively low.
Data set [3] has as its system chronic interstitial cystitis syndromes. To be noted: quercetin alone; cited from earlier work.

On to `O=c1c(O)c(-c2ccc(O)c(O)c2)oc2cc(O)cc(O)c12` [quercetin], for which the “mean symptom score, after treatment” value in data set [1] (end value of the group) came to 13.1. In addition, the “improvement of mean symptom score” value in data set [1] (human, in vivo) worked out at 35%. Moreover, in data set [1] (patients with obtainable secretions, end value), the “white blood cell count in secretions, after treatment” value is listed as 5.3. For the same compound, the “white blood cell count in secretions, before treatment” value in data set [1] (patients with obtainable secretions, start value) was found to be 16.8. The “mean symptom score, before treatment” value in data set [1] (start value of the group) turned out to be 21.0. In data set [2], the bioavailability entry is recorded as “does not have a high bioavailability”. For the same compound, in data set [3], the “symptomatic response of patients” value is given as “significant”.
